Assay results published in patent US11395488B2, “Use of compositions comprising pelargonic acid and specific non ionic surfactants for inhibiting the growth of suckers on plants” (BELCHIM CROP PROTECTION NV, priority 2016, dated 2022).

Legend:
[1] = test system: suckers on tobacco plant; experiment: Use of pelargonic acid for inhibiting the growth of suckers (Example 1, FIG. 1); type: in vivo, tobacco plant of the Burley variety; settings: Burley tobacco; pelargonic acid applied at 0.5 g/l to 50.0 g/l; FIG. 1B
From the text: To better exemplify reference is made to FIGS. 1A and 1B, which show a tobacco plant (100) of the Burley variety. […] It can be observed that at full floral development (i.e. ˜3 to 4 months) suckers (150) started to proliferate and grew into auxiliary stems.

[2] = test system: tobacco plants; experiment: Treatment of tobacco plants with pelargonic acid: phytotoxicity (Example 3); type: in vivo, tobacco plants of the Burley and Virginia; settings: PA 3.4, 5.1, 6.8 g/l; V 450-460 l/ha; interval of 7 days between treatments
Description: (§1) In an experimental embodiment tobacco plants of the Burley and Virginia were treated with a Volume (V) of 450-460l/ha with a composition comprising pelargonic acid (PA) at different concentrations (e.g., 3.4 g/l, 5.1 g/l and 6.8 g/l) with an interval of 7 days between treatments; the exact experimental details can be found in Table 1.

[3] = test system: suckers on tobacco plants; experiment: Treatment of tobacco plants with pelargonic acid: sucker growth inhibition (Example 3); type: in vivo, tobacco plants of the Burley and Virginia; settings: PA 3.4, 5.1, 6.8 g/l; V 450-460 l/ha; interval of 7 days between treatments; across all plants
Description: as §1

For `CCCCCCCCC(=O)O` [pelargonic acid], the sucker growth [1] was “fully inhibited”, the “phytotoxicity or adverse ecological effects” value [2] was “no phytotoxicity or adverse ecological effects were observed” and the sucker growth inhibition [3] was greater than 90%.
